This is an account of results in US7674823B2, “DNA-PK inhibitors” (Cancer Research Technology Limited, priority 2001, dated 2010).

As a reminder, the melting point is the temperature, or range, at which the solid turns liquid. The IC50 is the concentration needed to halve the response being measured.

Test system in one series: not given
Test: not given
Settings: not given
Turning to `O=c1cc(N2CCOCC2)cc(-c2ccccc2)o1` [Compound 1, 4-morpholin-4-yl-6-(phenyl)-pyran-2-one], the melting point is 161 to 162 °C.

`CC(C)(C)c1ccc(-c2cc(N3CCOCC3)cc(=O)o2)cc1` [Compound 2, 4-morpholin-4-yl-6-(4-(t-butyl)phenyl)-pyran-2-one]: the melting point lay in the range of 230 to 232 °C.

Consider `COc1ccc(-c2cc(N3CCOCC3)cc(=O)o2)cc1` [Compound 3, 6-(4-methoxyphenyl)-4-morpholin-4-yl-pyran-2-one], for which the melting point was 212 to 213 °C.

In turn, `O=c1cc(N2CCSCC2)nc2c3ccccc3ccn12` [Compound 6, 2-Thiomorpholin-4-yl-pyrimido[2,1-a]isoquinolin-4-one] returned a melting point of 240 to 242 °C.

Take `CC1CCC(C)N(c2cc(=O)n3ccc4ccccc4c3n2)C1` (stereo not drawn) [Compound 7, 2-(2,5-Dimethyl-piperidin-1-yl)pyrimido[2,1-a]isoquinolin-4-one]: the melting point lay within 214 to 216 °C.

The compound `O=c1cc(N2CCCC(CO)C2)nc2c3ccccc3ccn12` (stereo not drawn) [Compound 9, 2-(3-Hydroxymethyl-piperidin-1-yl)pyrimido[2,1-a]isoquinolin-4-one] had a melting point of 165 to 166 °C.

Take `O=c1cc(NCC2CCCO2)nc2c3ccccc3ccn12` (stereo not drawn) [Compound 10, 2-[(Tetrahydro-furan-2-ylmethyl)-amino]pyrimido[2,1-a]isoquinolin-4-one]: the melting point lay within 174 to 175 °C.

`O=c1cc(N(CCO)CCO)nc2c3ccccc3ccn12` [Compound 11, 2-[Bis-(2-hydroxy-ethyl)-amino]pyrimido[2,1-a]isoquinolin-4-one] yielded a melting point of 211 to 212 °C.

For `C[C@@H]1CN(c2cc(=O)n3ccc4ccccc4c3n2)C[C@H](C)O1` [Compound 13, 2-((2S,6R)-2,6-Dimethyl-morpholin-4-yl)-pyrimido[2,1-a]isoquinolin-4-one], the melting point is 208 to 209 °C.

`CN(CC(O)c1ccccc1)c1cc(=O)n2ccc3ccccc3c2n1` (stereo not drawn) [Compound 16, 2-[(2-Hydroxy-2-phenyl-ethyl)-methyl-amino]-pyrimido[2,1-a]isoquinolin-4-one] displayed a melting point of 195 to 196 °C.

The compound `CN(CCC#N)c1cc(=O)n2ccc3ccccc3c2n1` [Compound 17, 3-[Methyl-(4-oxo-4H-pyrimido[2,1-a]isoquinolin-2-yl)-amino]-propionitrile] yielded a melting point of 166 to 167 °C.

`O=c1cc(NCCc2cccs2)nc2c3ccccc3ccn12` [Compound 18, 2-(2-Thiophen-2-yl-ethylamino)-pyrimido[2,1-a]isoquinolin-4-one] came in with a melting point of 162 to 163 °C.

As to `O=c1cc(NCC(O)CO)nc2c3ccccc3ccn12` (stereo not drawn) [Compound 19, 2-(2,3-Dihydroxypropylamino)-pyrimido[2,1-a]isoquinolin-4-one], the melting point fell in the range of 215 to 216 °C.

For `CC(O)CNc1cc(=O)n2ccc3ccccc3c2n1` (stereo not drawn) [Compound 20, 2-(2-Hydroxypropylamino)-pyrimido[2,1-a]isoquinolin-4-one], the melting point lay in the range of 199 to 200 °C.

In the case of `O=c1cc(NCC(O)c2cccc(O)c2)nc2c3ccccc3ccn12` (stereo not drawn) [Compound 21, 2-[2-Hydroxy-2-(3-hydroxy-phenyl)-ethylamino]-pyrimido[2,1-a]isoquinolin-4-one], the melting point lay in the range of 159 to 161 °C.

Take `O=c1cc(NCCO)nc2c3ccccc3ccn12` [Compound 22, 2-(2-Hydroxy-ethylamino)-pyrimido[2,1-a]isoquinolin-4-one]: the melting point lay in the range of 218 to 221 °C.

In turn, `O=c1cc(-c2ccccc2F)oc(N2CCOCC2)c1` [Compound 290, 6-(2-fluorophenyl)-2-(morpholin-4-yl)pyran-4-one] yielded a melting point of 137 to 138 °C.

`O=c1cc(N2CCCCC2)oc2c1ccc1ccccc12` [Compound 295, 2-piperidin-1-yl-benzo[h]chromen-4-one]: the melting point lay within 205 to 207 °C.

Take `O=c1cc(N2CCOCC2)oc2ccc(-c3ccccc3)cc12` [Compound 298, 2-(Morpholin-4-yl)-6-phenylchromen-4-one]: the melting point lay in the range of 218 to 220 °C.

Consider `Cc1cccc2c(=O)cc(N3CCOCC3)oc12` [Compound 302, 8-Methyl-2-morpholin-4-yl-chromen-4-one], for which the melting point was 148 °C.

In turn, `COc1cccc2c(=O)cc(N3CCOCC3)oc12` [Compound 303, 8-Methoxy-2-morpholin-4-yl-chromen-4-one] came in with a melting point of 165 °C.

Compound `O=c1cc(N2CCOCC2)oc2c(OS(=O)(=O)C(F)(F)F)cccc12` [Compound 305, Trifluoro-methanesulfonic acid 2-morpholin-4-yl-4-oxo-4H-chromen-8-yl ester] yielded a melting point of 177.8 to 178.9 °C.

Compound `O=c1cc(N2CCOCC2)oc2cc(OS(=O)(=O)C(F)(F)F)ccc12` [Compound 306, Trifluoro-methanesulfonic acid 2-morpholin-4-yl-4-oxo-4H-chromen-7-yl ester] displayed a melting point of 143 to 145 °C.

In turn, `O=c1cc(N2CCOCC2)oc2ccc(Br)cc12` [Compound 308, 6-Bromo-2-morpholin-4-yl-chromen-4-one] registered a melting point of 147 to 149 °C.

Regarding `C[C@@H]1CN(c2cc(=O)c3ccc4ccccc4c3o2)C[C@H](C)O1` [Compound 309, 2-(2,6-cis-dimethyl-morpholin-4-yl)-benzo[h]chromen-4-one], the melting point lay within 211 to 212.5 °C.

`O=c1cc(N2CCNCC2)oc2c1ccc1ccccc12` [Compound 311, 2-piperazin-1-yl-benzo[h]chromen-4-one] displayed a melting point of 208 to 209 °C.

`O=c1cc(N2CCCC(CO)C2)oc2c1ccc1ccccc12` (stereo not drawn) [Compound 313, 2-(3-Hydroxymethyl-piperidin-1-yl)-benzo[h]chromen-4-one] had a melting point of 209 to 210 °C.

With `CN1CCN(c2cc(=O)c3ccc4ccccc4c3o2)CC1` [Compound 314, 2-(4-Methyl-piperazin-1-yl)-benzo[h]chromen-4-one], the melting point lay in the range of 184 to 185 °C.

Consider `O=c1cc(NCC2CCCO2)oc2c1ccc1ccccc12` (stereo not drawn) [Compound 316, 2-[(Tetrahydrofuran-2-ylmethyl)-amino]-benzo[h]chromen-4-one], for which the melting point fell in the range of 139 to 140 °C.

As to `O=c1cc(N2CCOCC2)oc2cc(OCc3ccccc3Cl)ccc12` [Compound 417, 7-(2-Chlorobenzyloxy)-2-morpholin-4-yl-chromen-4-one], the melting point was in the range of 167 to 168 °C.

The next series concerns the target T1, Mammalian DNA-PK, isolated from Hela cell nuclear extract (Homo sapiens, UniProt P78527).
T1 construct: Mammalian DNA-PK, isolated from Hela cell nuclear extract; endogenous in cells; host or cells: HeLa cell nuclear extract (purified per Gell and Jackson 1999)
Nature of the series: DNA-PK inhibition assay (33P-ATP, filter binding). It counts as biochemical.
Settings: not given
As to the method:
In order to assess the inhibitory action of the compounds against DNA-PK in vitro, the following assay was used to determine IC50 values.
The total assay volume per well was 40 μl.
After 10 minutes of incubation at 30° C. the reactions were initiated by the addition of Na-ATP (50 μM final), ^33p-γATP and a 30mer double stranded DNA oligonucleotide (10 ng/μl) in a volume of 10 μl. Designated positive and negative reaction wells were done in combination with compound wells (unknowns) in order to calculate % enzyme activities. The plates were then shaken for 2 minutes and incubated at 30° C. for 45 minutes.
Following the incubation, the reactions were quenched by the addition of 50 μl 30% acetic acid to each well. The plates were then shaken for 5 minutes and the contents of each plate (80 μl from each well) transferred over to a 96 well Polyfiltronics filtration plate, containing P81-phosphocellulose membrane (TRADE MARK)(Whatman, UK). The solutions were vacuum pumped through the membrane and each well membrane washed four times using 300 μl of 15% acetic acid. The well membranes were then air dried and 20 μl of scintillant was added to each well.
The plates were transferred to a TopCount NXT (TRADE MARK) (Packard, UK) for scintillation counting. Values recorded are counts per minute (cpm) following a 1 minute counting time for each well.
The enzyme activity for each compound is then calculated using the following equation: […]
These are determined over a range of different concentrations, normally from 10 μM down to 0.01 μM. Such IC50 values are used as comparative values to identify increased compound potencies.
Consider `COc1ccc(-c2cccc3c(=O)cc(N4CCOCC4)oc23)cc1` [Compound 385], for which the IC50 was below 1000 nM.

On to `O=c1cc(N2CCOCC2)oc2c(-c3cccc(-c4ccccc4)c3)cccc12` [Compound 389], for which the IC50 was below 1000 nM.

Take `O=c1cc(N2CCOCC2)oc2c(-c3ccc(CO)cc3)cccc12` [Compound 394]: the IC50 was below 1000 nM.

Still in this series, the particulars now being: IC50 of less than about 1 μM and/or % inhibition of more than about 50 at 1 μM; read-out: DNA-PK inhibition IC50 (particular efficacy).
`O=c1cc(N2CCSCC2)nc2c3ccccc3ccn12` [Compound 6, 2-Thiomorpholin-4-yl-pyrimido[2,1-a]isoquinolin-4-one]: the IC50 was below 1000 nM.

With `COC(=O)c1ccc(COc2ccc3c(=O)cc(N4CCOCC4)oc3c2)cc1` [Compound 339, Methyl 4-(2-(morpholin-4-yl)-4-oxo-4H-chromen-7-yloxymethyl)-benzoate], the IC50 is below 1000 nM.

Turning to `COC(=O)c1cccc(COc2ccc3c(=O)cc(N4CCOCC4)oc3c2)c1` [Compound 340, Methyl 3-(2-(morpholin-4-yl)-4-oxo-4H-chromen-7-yloxymethyl)-benzoate], the IC50 is below 1000 nM.

With `O=c1cc(N2CCOCC2)oc2cc(OCc3cccc(Cl)c3)ccc12` [Compound 341, 7-(3-Chlorobenzyloxy)-2-(morpholin-4-yl)-chromen-4-one], the IC50 is below 1000 nM.

As to `O=c1cc(N2CCOCC2)oc2cc(OCCS(=O)(=O)c3ccccc3)ccc12` [Compound 366], the IC50 is below 1000 nM.

For `O=C1c2ccccc2C(=O)N1Cc1cccc(-c2ccc3c(=O)cc(N4CCOCC4)oc3c2)c1` [Compound 375], the IC50 was below 1000 nM.

As to `O=c1cc(N2CCOCC2)oc2c(-c3ccsc3)cccc12` [Compound 403], the half-maximal inhibitory concentration (IC50) is below 1000 nM.

In the case of `O=c1cc(N2CCOCC2)oc2c(-c3cc4ccccc4s3)cccc12` [Compound 408], the IC50 is below 1000 nM.

As for `CC(=O)c1ccc(-c2cccc3c(=O)cc(N4CCOCC4)oc23)s1` [Compound 409], the IC50 was below 1000 nM.

Take `O=c1cc(N2CCOCC2)oc2c(-c3cccc4c3oc3ccccc34)cccc12` [Compound 410]: the IC50 is below 1000 nM.

The same series, now with this note: concentration at which 50% of the enzyme activity is inhibited; read-out: DNA-PK Inhibition IC50.
For `O=c1cc(N2CCSCC2)nc2c3ccccc3ccn12` [Compound 6, 2-Thiomorpholin-4-yl-pyrimido[2,1-a]isoquinolin-4-one], the IC50 was found to be 5000 nM.

Turning to `C[C@@H]1CN(c2cc(=O)n3ccc4ccccc4c3n2)C[C@H](C)O1` [Compound 13, 2-((2S,6R)-2,6-Dimethyl-morpholin-4-yl)-pyrimido[2,1-a]isoquinolin-4-one], the IC50 stood at 8000 nM.

Turning to `O=c1cc(N2CCOCC2)oc2cc(OCc3cccc(Cl)c3)ccc12` [Compound 341, 7-(3-Chlorobenzyloxy)-2-(morpholin-4-yl)-chromen-4-one], the IC50 amounted to 650 nM.

On to `Cc1cccc(COc2ccc3c(=O)cc(N4CCOCC4)oc3c2)c1` [Compound 342, 7-(3-Methylbenzyloxy)-2-(morpholin-4-yl)-chromen-4-one], for which the IC50 is 800 nM.

As for `O=c1cc(N2CCOCC2)oc2ccc(O)cc12` [Compound 343, 6-Hydroxy-2-(morpholin-4-yl)-chromen-4-one], the half-inhibitory concentration (IC50) was 700 nM.
